Structures can show the parent of a compound that is named as a salt.
biological target: T1, FAAH (Rattus norvegicus, UniProt P97612); test: In vitro FAAH activity in rat brain membranes, 3H-AEA substrate, % of control; type: biochemical, Wistar rats; details: 100 nM test compound, low value = strong inhibitor
T1 construct: Frozen brains (without cerebellum) from Wistar rats were used; from tissue; host or cells: Wistar rat brain (without cerebellum), washed membrane pellets
T1 sequence (P97612 1-579): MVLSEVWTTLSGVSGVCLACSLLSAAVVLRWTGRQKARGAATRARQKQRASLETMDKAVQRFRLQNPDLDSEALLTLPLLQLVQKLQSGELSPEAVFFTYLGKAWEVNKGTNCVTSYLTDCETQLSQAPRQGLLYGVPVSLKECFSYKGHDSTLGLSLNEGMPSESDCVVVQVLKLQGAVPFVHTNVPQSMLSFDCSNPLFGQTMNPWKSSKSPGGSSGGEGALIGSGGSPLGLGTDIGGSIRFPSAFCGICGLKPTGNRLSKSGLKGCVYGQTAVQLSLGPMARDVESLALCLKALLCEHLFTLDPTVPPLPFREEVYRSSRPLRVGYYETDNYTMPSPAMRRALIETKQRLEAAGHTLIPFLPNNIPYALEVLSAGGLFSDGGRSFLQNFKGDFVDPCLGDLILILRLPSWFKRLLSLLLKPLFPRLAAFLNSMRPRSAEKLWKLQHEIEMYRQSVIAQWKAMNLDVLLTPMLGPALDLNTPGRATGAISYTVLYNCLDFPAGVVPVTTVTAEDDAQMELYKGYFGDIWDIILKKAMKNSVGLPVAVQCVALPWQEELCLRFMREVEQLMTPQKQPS
In short: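 Wistar rat brain membranes (5 μg protein) preincubated 15 min at 37 °C with compound at 10 μM or 0.1 μM (0.1% DMSO), then 2 μM AEA including 3H-AEA with 0.1% BSA, Tris pH 7.6, 10 min. 3H-ethanolamine counted after charcoal stop; % of no-compound control after blank subtraction.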

| SMILES | In Vitro FAAH activity, 100 nM |
| --- | --- |
| CN(Cc1ccc2ccccc2c1)C(=O)n1nnc2ccccc21 [Compound 131, N-methyl-N-(naphthalen-2-ylmethyl)-1H-benzo[d][1,2,3]triazole-1-carboxamide] | 0 % of control |
| Cc1ccc(OC2CCN(C(=O)n3cnc(-c4ccc(N5CCN(C)CC5)cc4)n3)CC2)cc1.Cl [Compound 132, (3-(4-(4-methylpiperazin-1-yl)phenyl)-1H-1,2,4-triazol-1-yl)(4-(p-tolyloxy)piperidin-1-yl)methanone hydrochloride] | 85.1 % of control |
| O=C(N1CCOCC1)n1cnc(-c2ccc(N3CCN(Cc4ccccc4)CC3)cc2)n1 [Compound 133, (3-(4-(4-benzylpiperazin-1-yl)phenyl)-1H-1,2,4-triazol-1-yl)(morpholino)methanone] | 90.7 % of control |
| Cc1ccc(OC2CCN(C(=O)n3cnc(-c4ccc(F)cc4F)n3)CC2)cc1 [Compound 134, (3-(2,4-difluorophenyl)-1H-1,2,4-triazol-1-yl)(4-(p-tolyloxy)piperidin-1-yl)methanone] | 34.5 % of control |
| CN(C)C(=O)n1cnc(-c2ccc(N3CCN(c4ccccc4)CC3)cc2)n1 [Compound 138, N,N-dimethyl-3-(4-(4-phenylpiperazin-1-yl)phenyl)-1H-1,2,4-triazole-1-carboxamide] | 83.8 % of control |
| CN(C)C(=O)n1cnc(-c2ccc(Oc3ccc(C#N)cc3)cc2)n1 [Compound 140, 3-(4-(4-cyanophenoxy)phenyl)-N,N-dimethyl-1H-1,2,4-triazole-1-carboxamide] | 58.6 % of control |
| N#Cc1ccc(Oc2ccc(-c3ncn(C(=O)N4CCOCC4)n3)cc2)cc1 [Compound 141, 4-(4-(1-(morpholine-4-carbonyl)-1H-1,2,4-triazol-3-yl)phenoxy)benzonitrile] | 15.9 % of control |
| O=C(N[C@H]1CN2CCC1CC2)n1nnc2ccccc21 [Compound 142, (R)—N-(quinuclidin-3-yl)-1H-benzo[d][1,2,3]triazole-1-carboxamide hydrochloride] | 101.8 % of control |
| CN(C)C(=O)n1cnc(-c2ccc(Oc3ccc(C(N)=O)cc3)cc2)n1 [Compound 146, 3-(4-(4-carbamoylphenoxy)phenyl)-N,N-dimethyl-1H-1,2,4-triazole-1-carboxamide] | 77.1 % of control |
| CN(C(=O)n1cnc(-c2ccc(Oc3ccc(C(N)=O)cc3)cc2)n1)c1ccccc1 [Compound 149, 3-(4-(4-carbamoylphenoxy)phenyl)-N-methyl-N-phenyl-1H-1,2,4-triazole-1-carboxamide] | 49.9 % of control |
| CN(C(=O)n1nnc2ccccc21)[C@H]1CC[C@H](OCc2ccccc2)CC1 [Compound 152, N-((1r,4r)-4-(benzyloxy)cyclohexyl)-N-methyl-1H-benzo[d][1,2,3]triazole-1-carboxamide] | 1.3 % of control |
| CN(C(=O)n1cnc(Cc2ccccc2)n1)c1ccccc1 [Compound 160, 3-benzyl-N-methyl-N-phenyl-1H-1,2,4-triazole-1-carboxamide] | 18.8 % of control |
| CC1(C)COCN1C(=O)n1cnc(-c2ccccc2)c1 [Compound 161, (4,4-dimethyloxazolidin-3-yl)(4-phenyl-1H-imidazol-1-yl)methanone] | 93.6 % of control |
| O=C(N1CCC(Oc2ccc(OCc3ccccc3)cc2)CC1)n1nnc2ccccc21 [Compound 164, (1H-benzo[d][1,2,3]triazol-1-yl)(4-(4-(benzyloxy)phenoxy)piperidin-1-yl)methanone] | 0.3 % of control |
| CCCCOc1ccc(OC2CCN(C(=O)n3nnc4ccccc43)CC2)cc1 [Compound 168, (1H-benzo[d][1,2,3]triazol-1-yl)(4-(4-butoxyphenoxy)piperidin-1-yl)methanone] | 0 % of control |
| CN(C(=O)n1cnc(-c2cccs2)n1)c1ccccc1 [Compound 180, N-methyl-N-phenyl-3-(thiophen-2-yl)-1H-1,2,4-triazole-1-carboxamide] | 57.5 % of control |
| CN(Cc1ccccc1)C(=O)n1cnc(-c2cccs2)n1 [Compound 181, N-benzyl-N-methyl-3-(thiophen-2-yl)-1H-1,2,4-triazole-1-carboxamide] | 0.9 % of control |

Other lines, results leading:

| In Vitro FAAH activity, 100 nM | SMILES |
| --- | --- |
| 0.2 % of control | O=C(N1CCN(c2ccc(O)cc2)CC1)n1nnc2ccccc21 [Compound 136, (1H-benzo[d][1,2,3]triazol-1-yl)(4-(4-hydroxyphenyl)piperazin-1-yl)methanone] |
| 0.1 % of control | COc1ccc(OC2CCN(C(=O)n3nnc4ccccc43)CC2)cc1 [Compound 137, (1H-benzo[d][1,2,3]triazol-1-yl)(4-(4-methoxyphenoxy)piperidin-1-yl)methanone] |
| 0 % of control | COc1cccc(OCC2CCN(C(=O)n3nnc4ccccc43)CC2)c1 [Compound 153, (1H-benzo[d][1,2,3]triazol-1-yl)(4-((3-methoxyphenoxy)methyl)piperidin-1-yl)methanone] |
| 0.2 % of control | O=C(N1CCN(C2CCCC2)CC1)n1nnc2ccccc21 [Compound 154, (1H-benzo[d][1,2,3]triazol-1-yl)(4-cyclopentylpiperazin-1-yl)methanone] |
| 4.8 % of control | O=C(N1CCC(O)CC1)n1nnc2ccccc21 [Compound 159, (1H-benzo[d][1,2,3]triazol-1-yl)(4-hydroxypiperidin-1-yl)methanone] |
| 0 % of control | COc1ccc(OCC2CCN(C(=O)n3nnc4ccccc43)CC2)cc1 [Compound 165, (1H-benzo[d][1,2,3]triazol-1-yl)(4-((4-methoxyphenoxy)methyl)piperidin-1-yl)methanone] |
| 0 % of control | COc1cccc(OC2CCN(C(=O)n3nnc4ccccc43)CC2)c1 [Compound 166, (1H-benzo[d][1,2,3]triazol-1-yl)(4-(3-methoxyphenoxy)piperidin-1-yl)methanone] |
| 73.6 % of control | CON(C)C(=O)n1nnc2ccccc21 [Compound 169, N-methoxy-N-methyl-1H-benzo[d][1,2,3]triazole-1-carboxamide] |
| 2.1 % of control | O=C(N1CCSC1)n1nnc2ccccc21 [Compound 170, (1H-benzo[d][1,2,3]triazol-1-yl)(thiazolidin-3-yl)methanone] |
| 15.2 % of control | O=C(N1CCCCCCC1)n1nnc2ccccc21 [Compound 171, azocan-1-yl(1H-benzo[d][1,2,3]triazol-1-yl)methanone] |
| 0.3 % of control | O=C(N1CCCCCC1)n1nnc2ccccc21 [Compound 172, azepan-1-yl(1H-benzo[d][1,2,3]triazol-1-yl)methanone] |
| 70.6 % of control | C[C@@H]1CCC[C@H](C)N1C(=O)n1nnc2ccccc21 [Compound 173, (1H-benzo[d][1,2,3]triazol-1-yl)((2R,6S)-2,6-dimethylpiperidin-1-yl)methanone] |
| 0.7 % of control | O=C(N1Cc2ccccc2C1)n1nnc2ccccc21 [Compound 174, (1H-benzo[d][1,2,3]triazol-1-yl)(isoindolin-2-yl)methanone] |
| 21 % of control | CC1CC(C)CN(C(=O)n2nnc3ccccc32)C1 (stereo not drawn) [Compound 175, (1H-benzo[d][1,2,3]triazol-1-yl)(3,5-dimethylpiperidin-1-yl)methanone] |
| 0.2 % of control | CCOC(=O)C1CCN(C(=O)n2nnc3ccccc32)CC1 [Compound 176, ethyl 1-(1H-benzo[d][1,2,3]triazole-1-carbonyl)piperidine-4-carboxylate] |
| 6.9 % of control | CCOC(=O)N1CCN(C(=O)n2nnc3ccccc32)CC1 [Compound 177, ethyl 4-(1H-benzo[d][1,2,3]triazole-1-carbonyl)piperazine-1-carboxylate] |
| 94.5 % of control | CC(=O)N1CCN(C(=O)n2nnc3ccccc32)CC1 [Compound 178, 1-(4-(1H-benzo[d][1,2,3]triazole-1-carbonyl)piperazin-1-yl)ethanone] |
| 49 % of control | NC(=O)C1CCN(C(=O)n2nnc3ccccc32)CC1 [Compound 179, 1-(1H-benzo[d][1,2,3]triazole-1-carbonyl)piperidine-4-carboxamide] |

same assay, conditions: 10 uM test compound, low value = strong inhibitor

| SMILES | In Vitro FAAH activity, 10 uM |
| --- | --- |
| CC1(C)COCN1C(=O)n1cnc(-c2ccccc2)c1 [Compound 161, (4,4-dimethyloxazolidin-3-yl)(4-phenyl-1H-imidazol-1-yl)methanone] | 3.3 % of control |

— patent US9353082B2, “Pharmaceutical compounds” (BIAL—PORTELA & CA, S.A., priority 2008, dated 2016)
